Data as given in patent US20240116845A1, “INDENE COMPOUNDS, PHARMACEUTICAL COMPOSITIONS THEREOF, AND THEIR THERAPEUTIC APPLICATIONS” (NucMito Pharmaceuticals Co., Ltd., priority 2021, published 2024).

Key:
Assay type in all cases: cell-based
[1] = test system: alpha-smooth muscle actin (α-SMA); assay: Inhibition of TGF-β induced expression of alpha-smooth muscle actin in CFSC cells (western blot); conditions: compound at 10 μM, TGF-β (10 ng/mL), 24 hours
Procedure, shortened: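 Rat CCl4-treated hepatic stellate (CFSC) cells in serum-free DMEM were given compound at 10 μM plus TGF-β 10 ng/mL for 24 h at 37 °C. α-SMA measured by western blot with β-actin, bands quantified densitometrically. Percent inhibition is the decrease in band intensity versus TGF-β alone.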

[2] = test system: B16F10 (malignant melanoma); assay: Antiproliferative activity, CCK-8 cell viability; conditions: Mus musculus, B16-F10, 72 h, read-out: Inhibition of Cancerous Cells, B16F10; for inhibition at 3.3 µM: compound concentration of 3.3 μM; for inhibition at 10 µM: compound concentration of 10 μM; for inhibition at 30 µM: compound concentration of 30 μM
Procedure, shortened: (§1)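 Cells in DMEM with 10% FBS were treated with compound at 3.3, 10 or 30 μM for 72 h at 37°C. Viability was read by CCK-8 absorbance at 450 nm and expressed relative to DMSO-treated cells. Growth inhibition was binned as ≥50%, 30–50% or <30%.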

[3] = test system: A549 (lung adenocarcinoma); assay: Antiproliferative activity, CCK-8 cell viability; conditions: Homo sapiens, 72 h, read-out: Inhibition of Cancerous Cells, A549; for inhibition at 3.3 µM: compound concentration of 3.3 μM; for inhibition at 10 µM: compound concentration of 10 μM; for inhibition at 30 µM: compound concentration of 30 μM
[4] = test system: MDA-MB-231 (breast cancer); assay: Antiproliferative activity, CCK-8 cell viability; conditions: Homo sapiens, 72 h, read-out: Inhibition of Cancerous Cells, MDA-MB-231; for inhibition at 3.3 µM: compound concentration of 3.3 μM; for inhibition at 10 µM: compound concentration of 10 μM; for inhibition at 30 µM: compound concentration of 30 μM
Procedure, shortened: as §1

[5] = test system: SW480 (colon cancer); assay: Antiproliferative activity, CCK-8 cell viability; conditions: Homo sapiens, 72 h, read-out: Inhibition of Cancerous Cells, SW480; for inhibition at 3.3 µM: compound concentration of 3.3 μM; for inhibition at 10 µM: compound concentration of 10 μM; for inhibition at 30 µM: compound concentration of 30 μM
Procedure, shortened: as §1

[6] = test system: A431 (epidermoid carcinoma); assay: Antiproliferative activity, CCK-8 cell viability; conditions: Homo sapiens, A-431, 72 h, read-out: Inhibition of Cancerous Cells, A431; for inhibition at 3.3 µM: compound concentration of 3.3 μM; for inhibition at 10 µM: compound concentration of 10 μM; for inhibition at 30 µM: compound concentration of 30 μM
Procedure, shortened: as §1

[7] = test system: HeLa (cervical cancer); assay: Antiproliferative activity, CCK-8 cell viability; conditions: Homo sapiens, 72 h, read-out: Inhibition of Cancerous Cells, HELA; for inhibition at 3.3 µM: compound concentration of 3.3 μM; for inhibition at 10 µM: compound concentration of 10 μM; for inhibition at 30 µM: compound concentration of 30 μM
[8] = test system: HepG2 (liver cancer); assay: Antiproliferative activity, CCK-8 cell viability; conditions: Homo sapiens, 72 h, read-out: Inhibition of Cancerous Cells, HepG2; for inhibition at 3.3 µM: compound concentration of 3.3 μM; for inhibition at 10 µM: compound concentration of 10 μM; for inhibition at 30 µM: compound concentration of 30 μM
Procedure, shortened: as §1

CC1=C(CC(=O)N(C)O)c2cc(F)ccc2/C1=C\c1ccc(Oc2ccc(F)cc2)cc1 [Compound B2, 2-[(1Z)-5-Fluoro-1-{[4-(4-fluorophenoxy)phenyl]methylidene}-2-methyl-1H-inden-3-yl]-N-hydroxy-N-methylacetamide]
inhibition at 10 µM [1]: ≥ 80%
inhibition at 3.3 µM [2]: ≥ 50%
inhibition at 10 µM [2]: ≥ 50%
inhibition at 30 µM [2]: ≥ 50%
inhibition at 3.3 µM [3]: ≥ 50%
inhibition at 10 µM [3]: ≥ 50%
inhibition at 30 µM [3]: ≥ 50%
inhibition at 3.3 µM [4]: ≥ 50%
inhibition at 10 µM [4]: ≥ 50%
inhibition at 30 µM [4]: ≥ 50%
inhibition at 3.3 µM [5]: ≥ 50%
inhibition at 10 µM [5]: ≥ 50%
inhibition at 30 µM [5]: ≥ 50%
inhibition at 3.3 µM [6]: ≥ 50%
inhibition at 10 µM [6]: ≥ 50%
inhibition at 30 µM [6]: ≥ 50%
inhibition at 3.3 µM [7]: 30 to 50%
inhibition at 10 µM [7]: 30 to 50%
inhibition at 30 µM [7]: ≥ 50%
inhibition at 3.3 µM [8]: < 30%
inhibition at 10 µM [8]: 30 to 50%
inhibition at 30 µM [8]: ≥ 50%

CC1=C(CC(=O)O)c2cc(F)cc(F)c2/C1=C/c1ccc(Oc2ccc(F)cc2)cc1 [Compound E4, 2-[(1E)-5,7-Difluoro-2-methyl-1-({4-[4-fluorophenoxy]phenyl}methylidene)-1H-inden-3-yl]acetic acid]
inhibition at 10 µM [1]: ≥ 80%
inhibition at 3.3 µM [2]: ≥ 50%
inhibition at 10 µM [2]: ≥ 50%
inhibition at 30 µM [2]: ≥ 50%
inhibition at 3.3 µM [3]: < 30%
inhibition at 10 µM [3]: 30 to 50%
inhibition at 30 µM [3]: ≥ 50%
inhibition at 3.3 µM [4]: ≥ 50%
inhibition at 10 µM [4]: ≥ 50%
inhibition at 30 µM [4]: ≥ 50%
inhibition at 3.3 µM [5]: < 30%
inhibition at 10 µM [5]: ≥ 50%
inhibition at 30 µM [5]: ≥ 50%
inhibition at 3.3 µM [6]: < 30%
inhibition at 10 µM [6]: ≥ 50%
inhibition at 30 µM [6]: ≥ 50%
inhibition at 3.3 µM [7]: 30 to 50%
inhibition at 10 µM [7]: ≥ 50%
inhibition at 30 µM [7]: ≥ 50%
inhibition at 3.3 µM [8]: ≥ 50%
inhibition at 10 µM [8]: ≥ 50%
inhibition at 30 µM [8]: ≥ 50%

CC1=C(CC(=O)O)c2cc(F)ccc2/C1=C\c1ccc(CCc2ccccc2)cc1 [Compound A8, 2-[(1Z)-5-Fluoro-2-methyl-1-{[4-(2-phenylethyl)phenyl]methylidene}-1H-inden-3-yl]acetic acid]
inhibition at 10 µM [1]: ≥ 80%
inhibition at 3.3 µM [2]: < 30%
inhibition at 10 µM [2]: < 30%
inhibition at 30 µM [2]: ≥ 50%
inhibition at 3.3 µM [3]: < 30%
inhibition at 10 µM [3]: ≥ 50%
inhibition at 30 µM [3]: ≥ 50%
inhibition at 3.3 µM [4]: 30 to 50%
inhibition at 10 µM [4]: ≥ 50%
inhibition at 30 µM [4]: ≥ 50%
inhibition at 3.3 µM [5]: 30 to 50%
inhibition at 10 µM [5]: ≥ 50%
inhibition at 30 µM [5]: ≥ 50%
inhibition at 3.3 µM [6]: 30 to 50%
inhibition at 10 µM [6]: ≥ 50%
inhibition at 30 µM [6]: ≥ 50%
inhibition at 3.3 µM [7]: < 30%
inhibition at 10 µM [7]: < 30%
inhibition at 30 µM [7]: ≥ 50%
inhibition at 3.3 µM [8]: 30 to 50%
inhibition at 10 µM [8]: 30 to 50%
inhibition at 30 µM [8]: ≥ 50%

O=C(O)CC1=C/C(=C/c2ccc(Oc3ccc(F)cc3)cc2)c2ccc(F)cc21 [Compound D33, 2-[(1Z)-5-Fluoro-1-{[4-(4-fluorophenoxy)phenyl]methylidene}-1H-inden-3-yl]acetic acid]
inhibition at 10 µM [1]: < 30%
inhibition at 3.3 µM [2]: 30 to 50%
inhibition at 10 µM [2]: ≥ 50%
inhibition at 30 µM [2]: ≥ 50%
inhibition at 3.3 µM [3]: 30 to 50%
inhibition at 10 µM [3]: 30 to 50%
inhibition at 30 µM [3]: ≥ 50%
inhibition at 3.3 µM [4]: ≥ 50%
inhibition at 10 µM [4]: ≥ 50%
inhibition at 30 µM [4]: ≥ 50%
inhibition at 3.3 µM [5]: 30 to 50%
inhibition at 10 µM [5]: ≥ 50%
inhibition at 30 µM [5]: ≥ 50%
inhibition at 3.3 µM [6]: < 30%
inhibition at 10 µM [6]: 30 to 50%
inhibition at 30 µM [6]: ≥ 50%
inhibition at 3.3 µM [7]: 30 to 50%
inhibition at 10 µM [7]: < 30%
inhibition at 30 µM [7]: ≥ 50%
inhibition at 3.3 µM [8]: ≥ 50%
inhibition at 10 µM [8]: ≥ 50%
inhibition at 30 µM [8]: ≥ 50%
